What was measured:
Assay in all cases: relative viability (nuclei count vs DMSO), 5 days (fraction); higher = more cells survive
Metformin + OSI-027 = compound: CN(C)C(=N)NC(=N)N [Metformin] + COc1cccc2cc(-c3nc([C@H]4CC[C@H](C(=O)O)CC4)n4ncnc(N)c34)[nH]c12 [OSI-027] (partner 0.5 µM)
How it was run: (§1)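 Lung cancer cell lines were seeded in 1536-well plates and dosed by pin tool the next day, with either a single drug or a fixed anchor-drug dose combined with five library-drug doses (not always all listed) spaced in √10 steps. Five days later, one step fixed the cells and stained their nuclei (final 0.05% Triton X-100, 1% formaldehyde, 1 ug/ml Hoechst), and nuclei were counted on 4× images. Relative viability is the nuclei count in treated wells divided by the count in vehicle wells, and each value is the median of duplicate plates.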

Metformin + Crizotinib = compound: CN(C)C(=N)NC(=N)N [Metformin] + C[C@@H](Oc1cc(-c2cnn(C3CCNCC3)c2)cnc1N)c1c(Cl)ccc(F)c1Cl [Crizotinib] (partner 1 µM)
How it was run: as §1

Apatinib + Dasatinib = compound: N#CC1(c2ccc(NC(=O)c3cccnc3NCc3ccncc3)cc2)CCCC1 [Apatinib] + Cc1nc(Nc2ncc(C(=O)Nc3c(C)cccc3Cl)s2)cc(N2CCN(CCO)CC2)n1 [Dasatinib] (partner 0.075 µM)
How it was run: as §1

Apatinib + Phenformin = compound: N#CC1(c2ccc(NC(=O)c3cccnc3NCc3ccncc3)cc2)CCCC1 [Apatinib] + N=C(N)NC(=N)NCCc1ccccc1 [Phenformin] (partner 250 µM)
How it was run: as §1

NCI-H460 was tested. Which relative viability (Metformin + OSI-027; first compound 10 µM) did it give?
Its relative viability is 0.685.

And the relative viability (Metformin + OSI-027; first compound 31.62 µM)?
Its relative viability is 0.664.

What about the relative viability (Metformin + OSI-027; first compound 100 µM) of the same cell line?
The relative viability was 0.547.

And the relative viability (Metformin + OSI-027; first compound 316.23 µM)?
Its relative viability is 0.49.

What about the relative viability (Metformin + OSI-027; first compound 1000 µM) of the same cell line?
The relative viability was 0.762.

What about the relative viability (Metformin + Crizotinib; first compound 31.62 µM) of the same cell line?
Its relative viability is 0.734.

What about the relative viability (Metformin + Crizotinib; first compound 100 µM) of the same cell line?
The relative viability was 0.778.

What about the relative viability (Metformin + Crizotinib; first compound 316.23 µM) of the same cell line?
Its relative viability is 0.829.

And the relative viability (Metformin + Crizotinib; first compound 1000 µM)?
Its relative viability is 0.916.

And the relative viability (Apatinib + Dasatinib; first compound 0.08 µM)?
The relative viability was 0.468.

And the relative viability (Apatinib + Dasatinib; first compound 0.253 µM)?
Its relative viability is 0.477.

And the relative viability (Apatinib + Dasatinib; first compound 0.8 µM)?
The relative viability was 0.426.

What about the relative viability (Apatinib + Dasatinib; first compound 2.53 µM) of the same cell line?
Its relative viability is 0.487.

And the relative viability (Apatinib + Dasatinib; first compound 8 µM)?
The relative viability was 0.413.

And the relative viability (Apatinib + Phenformin; first compound 0.08 µM)?
Its relative viability is 0.494.

And the relative viability (Apatinib + Phenformin; first compound 0.253 µM)?
The relative viability was 0.479.

And the relative viability (Apatinib + Phenformin; first compound 0.8 µM)?
Its relative viability is 0.489.

And the relative viability (Apatinib + Phenformin; first compound 2.53 µM)?
The relative viability was 0.39.

And the relative viability (Apatinib + Phenformin; first compound 8 µM)?
The relative viability was 0.385.
